The results in this text go back to patent US20110028758A1, “Trans-cinnamic acid derivative, its preparation mathod and the use” (priority 2007, published 2011).

For series [1], the system named is mice ascites hepatoma cell strain H22. Description: Anti-tumor test in vivo, mice transplanted tumor of liver cancer H22. Further details: species or system Kunming mice. As to the method:
The mice ascites hepatoma cell strain H22 is purchased from the Experimental Center of Zhongshan University.
Recovery the mice ascites hepatoma cell strain H22, put the cell suspension liquid into a centrifugal tube and use the 4° C. saline to wash the suspension liquid twice, then centrifuge to discard the supernatant, add appropriate 4° C. saline to dilute the suspension liquid, count cells with 0.2% trypan blue, adjust the density to 10^7 cell/ml, according to 0.2 (ml/mice) intraperitoneal inoculation H22 cell suspension liquid.
After ten days of the intraperitoneal inoculation, the cervical vertebra is dislocated. Disinfect the mice abdominal skin, and suck the milky ascites with a sterile syringe, then adjust the concentration of tumor cells to 1×10^7 cell/ml with injection used saline. Disinfect the right armpit skin of the Kunming mice with alcohol swab, subcutaneously vaccinate the cell suspension liquid 0.2 ml, conventional feeding. […] Totally there are 180 tumor-bearing mice.
(§1) The 180 tumor-bearing mice are divided into 18 groups by the weigh of the mice, wherein each group has 10 mice (half male and half female). The drug delivery methods of each group are shown in Table 3 to illustrate eighteen groups of mice drug delivery situation.
Group 1 is the model group, and the mice of group 1 are given the tail vein saline injection daily started on the second day of the tumor-bearing for 10 days.
(§2) Group 2 is the cyclophosphamide (CTX) group, and the mice of group 2 are only given the cyclophosphamide in the intraperitoneal of the mice on the second day of the tumor-bearing.
(§3) Group 3 to 18 groups are given the four compounds respectively, wherein the groups delivered 25 mg/kg drug are tail vein low-dose group, wherein the groups delivered 50 mg/kg drugs are the tail vein medium-dose group, wherein the groups delivered 100 mg/kg drugs are the tail vein high-dose group, wherein the groups delivered 200 mg/kg drugs are the oral enteral group. These mice from group 3 to 18 start the drug delivery on the second day of the tumor-bearing, and delivered once a day for 10 sequent days.
The above drug deliveries are 20 ml/kg.
After finishing the drug delivery process, weight the mice, then kill the mice by pulling off the neck, and anatomy to get the tumor tissue of the mice on the next day of finishing the drug delivery process, and then weight the anatomized tumor by electronic weighing scales to calculate the inhibition rate.

Text in series [2]: as §1, §2, §3
After the drug delivery, weight the mice weight, then execute the mice, and then weight the spleen and thymus weight by electronic weighting scale respectively. The spleen index and thymus index are the weight (mg) of mice spleen, thymus of each group/mice weight (g).

Series [3] deals with human cervical carcinoma Hela cells. Description: MTT anti-tumor test in vitro, Hela. It is filed as cell-based. Particulars: for IC50 value: Hela, MTT, 48 hours. The text has this:
(§4) A complete culture medium is used for diluting the above original solution into corresponding concentrations for later use.
(§5) Human cervical carcinoma Hela cells, human hepatoma BEL-7402 cells, mucinous Human epidermoid A549 lung cancer cells, human breast cancer MCF-7/S cells, human glioma U251 cells, and human normal embryonic kidney HEK-293 cells are purchased from USA, American Type Culture Collection (ATCC). All the tumor cells are used the DMEM medium (containing 10% FBS, 100 U/ml penicillin and 100 μg/ml streptomycin) for culturing and subculturing, and HEK-293 cells are using RPMI1640 medium (10% FBS, 100 U/ml penicillin, and 100 μg/ml streptomycin) for culturing and subculturing, wherein the culture condition is in a 5% CO2 incubator at 37° C.
(§6) Subculture six kinds of cells, which has a logarithmic growing period, adherent rate about 80%, and in good condition, such as human cervical carcinoma Hela cells, human hepatoma BEL-7402 cells, mucinous Human epidermoid A549 lung cancer cells, human breast cancer MCF-7/S cells, human glioma U251 cells, and human normal embryonic kidney HEK-293 cells. Discard the culture medium, rinse 1-2 times with PBS to remove serum, add 1 ml 0.25% Trypsin-0.01% EDTA (37° C. incubation) to digest for 1-2 minutes, add FBS culture medium to terminate the above digestion, centrifuge at a speed below 800 r/min for 2-3 minutes and discard the supernatant, re-suspended cells in 10% FBS medium, tack the cell suspension liquid for cell counting, adjust the density of the above liquid to 1×10^5/ml, then inoculate to a 96-holes plates (100 μl/hole), and then incubate in 5% CO2 incubator at 37° C. overnight. The next day add above cells to different concentrations of I-a, I-b, I-c and I-d, 100 μl/hole (its final concentration is respectively 30, 60, 120, 240, 480 μg/ml); meanwhile, set up the blank control group (0 μM), and establish 3 holes. Continuing the cultural process, discard the culture medium after 48 hours that the drug has been effected, add 100 μl PBS of 0.5 mg/ml MTT (PH 7.2) into each holes, after 4 hours culture, remove the culture medium by adherent cells express flipping method, add 100 μl of DMSO to each holes, oscillate it by micro-oscillation device for 5 minutes, and measure the OD value at 490 nm wavelength. Repeat the above experiment three times to get an average value. Calculate the inhibition rate (IR %) of the tumor cell proliferation in vitro from different concentrations of I-a, I-b, I-c, I-d by the following formula:
(§7) IR %=(1−ODsampale/ODcontrol)×100%
(§8) Use SPSS11.5 software to calculate the half inhibitory concentration IC50 of I-a, I-b, I-c and I-d. The results are shown in Table 2 to illustrate IC50 values (unit: μg/ml) of the four compounds.
(In general: Formazan colour is commonly taken as a measure of viable cells.)

In series [4] the test system is mucinous Human epidermoid A549 lung cancer cells. The experiment in a line: MTT anti-tumor test in vitro, A549. It is filed as cell-based. To be noted: for IC50 value: A549, MTT, 48 hours.
Text: as §4, §5, §6, §7, §8

The test system of series [5] is human hepatoma BEL-7402 cells. The experiment in a line: MTT anti-tumor test in vitro, BEL-7402. Particulars: Bel- (BEL-7402). Format: cell-based.
Text: as §4, §5, §6, §7, §8

In series [6] the test system is human glioma U251 cells. Description: MTT anti-tumor test in vitro, U251. It is filed as cell-based.
Text: as §4, §5, §6, §7, §8

The subject of series [7] is human breast cancer MCF-7/S cells. Description: MTT anti-tumor test in vitro, MCF-7/S. Format: cell-based. To be noted: MCF-7 (MCF-7/S).
Text: as §4, §5, §6, §7, §8

The subject of series [8] is human normal embryonic kidney HEK-293 cells. The experiment in a line: MTT test on normal cells, HEK-293. Format: cell-based. Particulars: HEK- (HEK-293), MTT, 48 hours.
Text: as §4, §5
Subculture six kinds of cells, which has a logarithmic growing period, adherent rate about 80%, and in good condition, such as human cervical carcinoma Hela cells, human hepatoma BEL-7402 cells, mucinous Human epidermoid A549 lung cancer cells, human breast cancer MCF-7/S cells, human glioma U251 cells, and human normal embryonic kidney HEK-293 cells. […] Repeat the above experiment three times to get an average value.
as §7

For series [9] the following is noted: single tail vein administration 350 mg/kg.
Method: After the drug delivery, continuously observe the mice responses for 4 hours; after all, observe the mice twice a day (one is in the morning, and the other is in the afternoon) for 14 days, wherein the observation includes the appearance, behavior, secretions, excreta of the mice etc., and recording all the death situation, poisoning symptoms, the starting time and ending time of toxic reactions of the mice, severity, duration time of toxic, and to see if it is reversible reaction etc., sent it to the pathology examination if necessary, weight the mice before and after the drug delivered day of 3, 7, 10, and 14 days. After finishing the observation process, execute all of the mice, and anatomize the dead bodies of mice.
[10] abbreviates: ip. 60/single mg/kg on the second day of tumor-bearing.
Where [11] appears, read: ip. 60/single mg/kg on the second day of tumor-bearing, H22 tumor-bearing mice.
The mark [12] stands for this setting: average of three experiments ± SD.
Where [13] appears, read: average of three experiments ± SD, 48 hours.

Like-named read-outs stand apart in the source and are kept apart here.

On to `O=P1(N(CCCl)CCCl)NCCCO1` (centres unmarked) [CTX, cyclophosphamide, reference compound], for which, in series [1] (setting [10]), the “IR/% (inhibition rate)” value came to 55.2% and the Tumor weight/g is recorded as 0.686 ± 0.303 g. Besides, in [2] (setting [11]), the “Mice weight/g After drug delivery” value is 19.6 ± 2.0 g, the “Mice weight/g Before drug deli.” value came to 23.6 ± 1.8 g, the “Spleen index/mg · g^−1” value turned out to be 3.00 ± 0.59 mg/g and the “Thymus index/mg · g^−1” value turned out to be 2.46 ± 0.65 mg/g.
Take “2,4-dimethoxy-3-isopentenyl-cinnamic acid (E:Z=1:1) [I-d]”: the IC50 value in series [3] (setting [12]) turned out to be 153.59 ± 13.03 µg/mL; in series [3] (experiment 1), 144 µg/mL; in series [3] (experiment 2), 149 µg/mL; in series [4] (experiment 1), 190 µg/mL; in series [4] (experiment 2), 183 µg/mL; in [5] (setting [13]), 216.72 ± 5.07 µg/mL. Besides, the IC50 value in series [5] (experiment 1, 48 hours) was 221 µg/mL; in [5] (experiment 2, 48 hours), 211 µg/mL; in [6] (setting [13]) it was 204.44 ± 9.50 µg/mL; in series [6] (experiment 1, 48 hours), 210 µg/mL; in series [6] (experiment 2, 48 hours) it was 193 µg/mL; in series [7] (setting [13]), 193.46 ± 7.57 µg/mL. Further, the IC50 value in [7] (experiment 1, 48 hours) was determined as 200 µg/mL; in series [7] (experiment 2, 48 hours) it was 196 µg/mL; in [8] (setting [12]) it was 350.77 ± 14.09 µg/mL; in series [8] (experiment 1), 347 µg/mL; in series [8] (experiment 2) it was 366 µg/mL. The “HeLa cell proliferation IC50 values” in series [3] (at 48 hours) was found to be 148.59 ± 5.96 µg/mL. Besides, the “A549 cell proliferation IC50 values” in series [4] (at 48 hours) stood at 184.56 ± 5.80 µg/mL. The Tumor weight/g turned out to be 0.991 ± 0.410 g in [1] (i.g. 200 mg·(kg·d)^−1, once a day for 10 days); 1.307 ± 0.436 g in series [1] (i.v. 25 mg·(kg·d)^−1, once a day for 10 days); 1.068 ± 0.437 g in series [1] (i.v. 50 mg·(kg·d)^−1, once a day for 10 days); 0.901 ± 0.425 g in series [1] (i.v. 100 mg·(kg·d)^−1, once a day for 10 days). Also, the “IR/% (inhibition rate)” value in [1] (i.v. 25 mg·(kg·d)^−1, once a day for 10 days (low-dose group)) came out at 14.7%; in [1] (i.v. 50 mg·(kg·d)^−1, once a day for 10 days (medium-dose group)), 30.3%; in [1] (i.v. 100 mg·(kg·d)^−1, once a day for 10 days (high-dose group)) it was 41.2%. Further, the “Mice weight/g After drug delivery” value in series [2] (mouse, in vivo) stood at 20.0 ± 2.1 g. The “Mice weight/g Before drug deli.” value in [2] (mouse, in vivo) was found to be 24.6 ± 2.9 g. For the same compound, the “effect near the tail vein of the mice and its surrounding tissue” value in [2] (mouse, in vivo) is “irritation or corrosive”. In [2] (mouse, in vivo), the “general observation after injection (central nervous signs)” value is recorded as “central nerve inhibition phenomenon”. Moreover, the “splenomegaly of the tumor-bearing mice” value in [2] (mouse, in vivo) is reported as “can cause the splenomegaly”. Moreover, in series [9], the “drug reaction after administration” value is “abnormally excited at first, and then become in an inhibit state”.
